Data set [1] has as its system HBV. The experiment in a line: Effect of LIPG inhibitor on HBV in Huh7 cell line carrying HBV expression construct (Example 10). Format: cell-based, hepatitis B virus. The following applies: Huh7 cells, inhibitor 1 μM to 100 μM added five days after construct introduction, one week; depending on the concentration. The protocol: An HBV expression construct (HBV-C: provided by Dr. Yasuhito Tanaka at Nagoya City University) was introduced into Huh7 cell line. Five days after the introduction, an LIPG inhibitor (GSK264220A) was added at 1 μM to 100 μM and the cells were cultured.

Data set [2] has as its system HBV. Description: shRNA function against HBV infection of fresh human hepatocytes (PHH cells), short-term culture (Example 3). Particulars: for amount of cccDNA: shRNA alone, lentivirus day 0, HBV day 1, collected day 7; for amount of cccDNA, combined use of ETV: shRNA plus entecavir (ETV) 10 nM from day 2, collected day 7 (short-term culture).
Description: Using fresh human hepatocytes (PHH cells) derived from PXB mouse (PhoenixBio Co., Ltd., Hiroshima, Japan), effects of shRNAs against each gene on infection of human hepatocytes with HBV were determined. Experiments were carried out by culturing PHH cells as follows. First, on day 0 of culture, the cells were infected with the lentivirus expressing the shRNA against each of the genes by a conventional method. A serum collected from an HBV-infected chimeric mouse infected with HBV (Genotype C. 5 HBV DNA copies/cell) was added to the cells as an HBV inoculum on day 1 of culture. On day 2 of culture, the cells were washed three times and entecavir (ETV) (10 nM) was added thereto. On day 7 of culture, the cells were collected and the amount of HBV DNA, the amount of HBV cccDNA, and the mRNA level of each gene were determined. The amounts of HBV DNA, HBV cccDNA, and pg RNA were quantified in the same manner as in Example 1.
In data set [3] the test system is HBV. The experiment in a line: shRNA introduced after established HBV infection of PHHs (Example 6). The data set is classed as cell-based, hepatitis B virus. Particulars: shRNA introduced one week after HBV infection, cultured 3 weeks. The procedure:
The effects of an shRNA on the proliferation of HBV when PHHs were infected with HBV and then treated with an shRNA were investigated. One week after PHHs were infected with HBV, the shRNA (SEQ ID NO: 2) against Dock11 gene was introduced and the cells were cultured for 3 weeks with culture medium changes.

The test system of another data set is DOCK11 gene. Description: DOCK11 gene expression (mRNA) in Huh 7.5 cells (Example 8). Particulars: Huh7.5 cells, vs cont shRNA.
The next data set has as its system HCV. Description: HCV replication analysis, JFH1-RNA transfected Huh 7.5 cells (Example 8). Particulars: Huh7.5 cells, 24, 48 and 72 hours after introduction of HCV RNA (JFH1-RNA).

Consider 5 compounds from US10709727B2, “Antiviral drugs” (priority 2015, dated 2020).

Description for DOCK11 gene: The mRNA of DOCK11 gene was quantified by real time PCR according to a conventional method.
The antiviral activity of the shRNA against Dock11 gene was evaluated using a replicon system for JFH1 strain. HCV replication analysis was performed by transfecting Huh 7.5 cells with synthetic JFH1-RNA. Cells in which DOCK11 was constitutively knocked down were prepared by introducing DOCK11 shRNA #2 into Huh 7.5 cells. Cells into which cont shRNA was introduced were used as a control. Huh 7.5 cells into which each shRNA had been introduced were transfected with 1 μg synthetic RNA (JFH1-RNA) using TransIT®-mRNA Transfection Kit (Mirus). Total RNAs were isolated 24, 48 and 72 hours after the transfection using High Pure RNA Isolation Kit (Roche), and cDNAs were synthesized using high-capacity cDNA reverse transcription kit (Applied Biosystems, Carlsbad, Calif.). […] The expression of DOCK11 gene was evaluated by determining the level of mRNA in the same manner as in Example 2.
Description for HCV: The antiviral activity of the shRNA against Dock11 gene was evaluated using a replicon system for JFH1 strain. HCV replication analysis was performed by transfecting Huh 7.5 cells with synthetic JFH1-RNA. Cells in which DOCK11 was constitutively knocked down were prepared by introducing DOCK11 shRNA #2 into Huh 7.5 cells. Cells into which cont shRNA was introduced were used as a control. Huh 7.5 cells into which each shRNA had been introduced were transfected with 1 μg synthetic RNA (JFH1-RNA) using TransIT®-mRNA Transfection Kit (Mirus). Total RNAs were isolated 24, 48 and 72 hours after the transfection using High Pure RNA Isolation Kit (Roche), and cDNAs were synthesized using high-capacity cDNA reverse transcription kit (Applied Biosystems, Carlsbad, Calif.).

Turning to `Cc1oc(S(=O)(=O)N2CCCCC2)cc1NC(=O)Nc1ccccc1` [GSK264220A], in the data set with HBV [1], the “amount of HBV DNA” value was “decreased” and the “amount of HBV cccDNA” value is on record as “decreased”.

Take “DENND2A #2: lentivirus-expressed shRNA against DENND2A gene, SEQ ID NO: 7, used in Examples 3 and 4 (guide CCGGCCAATGAAGGAGAACCCTTATCTCGAGATAAGGGTTCTCCTTCATTGGTTTTTTG)”: the “amount of cccDNA” value in the data set with HBV [2] was “dramatically decreased”. The figures for the “amount of cccDNA, combined use of ETV” value with HBV [2] and in the data set on HBV [2] (listed as shRNA for DENND2A gene) were “below the detection sensitivity” and “below the detection limit”, respectively.

Take “DOCK11 #2: lentivirus-expressed shRNA against DOCK11 gene, SEQ ID NO: 2, used in Examples 3, 4, 6, 8, 12 (guide CCGGGTACTAGACACCATATCATTTCTCGAGAAATGATATGGTGTCTAGTACTTTTTG)”: in the data set on HBV [3], the “cccDNA of HBV” value was “disappear” and the “pgRNA of HBV” value was “disappear”. In addition, the “expression level of DOCK11 gene” value with DOCK11 gene is on record as “decreased”. In addition, the “HCV RNA replication” value in the data set on HCV is on record as “effectively suppressed”. In addition, in the data set on HBV [2], the “amount of cccDNA” value is “dramatically decreased” and the “amount of cccDNA, combined use of ETV” value is reported as “below the detection sensitivity”. The “amount of cccDNA, combined use of ETV” value in the data set with HBV [2] (listed as shRNA for Dock11 gene) is recorded as “below the detection limit”.

For “HECW2 #3: lentivirus-expressed shRNA against HECW2 gene, SEQ ID NO: 17, used in Examples 3 and 4 (guide CCGGGCACAATACTTGGAGTCAATTCTCGAGAATTGACTCCAAGTATTGTGCTTTTT)”, in the data set with HBV [2], the “amount of cccDNA” value is given as “decreased” and the “amount of cccDNA, combined use of ETV” value is on record as “synergistic effect to decrease cccDNA”.

As to “LIPG #5: lentivirus-expressed shRNA against LIPG gene, SEQ ID NO: 14, used in Examples 3 and 4 (guide CCGGTTACACGGATGCGGTCAATAACTCGAGTTATTGACCGCATCCGTGTAATTTTTG)”, in the data set on HBV [2], the “amount of cccDNA” value is on record as “decreased” and the “amount of cccDNA, combined use of ETV” value is reported as “synergistic effect to decrease cccDNA”.
